Data published in US20220087983A1, “ACTIVATING PYRUVATE KINASE R” (FORMA Therapeutics, Inc., priority 2020, published 2022).
Where “and” joins values, the source holds several entries; their conditions need not be identical. Identical values can stand only once. Entries after “also recorded” stand apart in the source; their conditions may differ. Like-named read-outs stand apart in the source and are kept apart here.

Assays:
[1] = Phase 1 SAD/MAD/food effect: plasma pharmacokinetics in healthy volunteers; assay type: in vivo, human
From the text: This is a first-in-human (FIH), Phase 1 study of Compound 1 that will characterize the safety, PK, and PD of Compound 1 after a single dose and after repeated dosing first in healthy adult volunteers and then in adolescents or adults with sickle cell disease. Initially, a dose range of Compound 1 in single ascending dose (SAD) escalation cohorts will be explored in healthy subjects. Enrollment of healthy subjects into 2-week multiple ascending dose (MAD) escalation cohorts will be initiated once the safety and PK from at least two SAD cohorts is available to inform the doses for the 2-week MAD portion of the study. The MAD cohorts will then run in parallel to the single dose cohorts. A single dose cohort is planned to understand food effects (FE) on the PK of Compound 1. […] Multiple dose studies in SCD subjects will then be initiated upon completion of MAD studies in healthy volunteers. Compound 1 will be administered in 25 mg and 100 mg tablets delivered orally, prepared as described in Example 1, Step 7.
(§1) In this study, SAD/MAD cohorts are randomized (3 to 1) to receive Compound 1 or placebo (P). Compound 1 was evaluated first in 4 healthy SAD cohorts and 4 healthy MAD (14-day dosing period) cohorts. Based on the safety, and PK/PD profile from HS, Compound 1 is then evaluated in 1 SCD SAD cohort and 2 SCD MAD cohorts. Specifically, based on the safety and pharmacokinetic/pharmacodynamics (PK/PD) profile in healthy volunteer studies, Compound 1 is evaluated in patients (pts) with SCD, first in a single dose (SD or SAD) cohort and then in multiple-dose (MD or MAD) cohorts (14-day and 12-week). Safety assessments include AEs, vital signs, ECGs and laboratory parameters. PK/PD blood sampling was performed on Day 1 (SAD/MAD) and Day 14 (MAD) and up to 72 h after the last dose and at the end-of-study visit. PD parameters included 2,3-DPG, ATP, and p50 in all cohorts with additional PD studies (including oxygen scan) performed only in the SCD cohorts. PD parameters included 2,3-DPG, ATP, p50, RBC deformability with controlled deoxygenation and reoxygenation (Lorrca® oxygen scan) and varying osmolality (Lorrca® osmoscan)). To maintain study blind, pt identifiers were removed when needed.
Primary Outcome Measures: • 1. Incidence, frequency, and severity of adverse events (AEs) per CTCAE v5.0 of a single ascending dose and multiple ascending doses of Compound 1 in adult healthy volunteers and SCD patients. Incidence of abnormal laboratory test results (clinical chemistry, endocrine hematology, urinalysis). Change from baseline in vital signs (blood pressure, respiratory rate, heart rate, and oral temperature). Incidence of treatment-emergent clinically significant abnormal findings in ECGs. • [Time Frame: Up to 3 weeks of monitoring] • 2. […] Area under the plasma concentration-time curve from time zero until the 24-hour time point (AUC0-24) • [Time Frame: Up to 3 weeks of testing] • 5. Area under the plasma concentration-time curve from time zero until last quantifiable time point (AUC0-last) • [Time Frame: Up to 3 weeks of testing] • 6. Area under the plasma concentration-time curve from time zero to infinity (AUC0-inf) • [Time Frame: Up to 3 weeks of testing] • 7. […] Apparent volume of distribution (Vd/F) • [Time Frame: Up to 3 weeks of testing] • 10. Terminal disposition rate constant (Lz) • [Time Frame: Up to 3 weeks of testing] • 11.
Four healthy SAD cohorts were evaluated at doses of 200, 400, 700, and 1000 mg, and four healthy MAD cohorts received 200 to 600 mg total daily doses for 14 days at QD or BID dosing (100 mg BID, 200 mg BID, 300 mg BID, and 400 mg QD). In the food effect (FE) cohort, 10 healthy subjects received 400 mg of Compound 1 QD with and without food.

ATP blood levels = experiment: Phase 1: blood ATP levels in SCD patients; assay type: in vivo, human; details: single 700 mg dose (FIG. 54A)
Protocol: as §1, with “PD parameters included 2,3-DPG, ATP, and p50 in all cohorts with additional PD studies (including oxygen scan) performed only in the SCD cohorts. PD parameters included 2,3-DPG, ATP, p50, RBC deformability with controlled deoxygenation and reoxygenation (Lorrca® oxygen scan) and varying osmolality (Lorrca® osmoscan)). To maintain study blind, pt identifiers were removed when needed.” left out
The following table reports the mean percentage change in ATP blood levels, relative to baseline, measured over time in SCD patients after a single dose of Compound 1 (700 mg):
ATP levels were increased from baseline in patients receiving Compound 1, resulting in improved RBC function and reduced hemoloysis. The following table reports the mean percentage change in ATP blood levels, relative to baseline, measured over time after the first dose on days 1 and 14 in SCD patients who received daily doses of Compound 1 (300 mg QD) for 14 days: […]

[2] = system: estradiol and testosterone levels; experiment: Circulating estradiol and testosterone in healthy subjects, 14 days; assay type: in vivo, human; details: up to 14 days, 100-300 mg BID, 400 mg QD
Protocol: Effects on circulating levels of estradiol and testosterone in male and female healthy subjects receiving Compound 1 or placebo for a treatment period of 14 days were evaluated. Compound 1 was administered twice daily (BID) at dose levels of 100 mg, 200 mg, and 300 mg, and once daily (QD) at a dose level of 400 mg. Each dosing cohort was comprised of 9 subjects treated with Compound 1 and 3 subjects treated with placebo. Testosterone and estradiol levels were assessed prior to dosing (baseline), and then on days 8, 14 and 17.

[3] = molecular target: T1, wt-PKR in mature human erythrocytes (Homo sapiens, UniProt P30613); experiment: Cell assay: PKR activation in human RBCs (Biovision Pyruvate Kinase Assay); assay type: cell-based
T1 construct: host or cells: purified human RBCs from donors
T1 sequence (P30613 whole entry): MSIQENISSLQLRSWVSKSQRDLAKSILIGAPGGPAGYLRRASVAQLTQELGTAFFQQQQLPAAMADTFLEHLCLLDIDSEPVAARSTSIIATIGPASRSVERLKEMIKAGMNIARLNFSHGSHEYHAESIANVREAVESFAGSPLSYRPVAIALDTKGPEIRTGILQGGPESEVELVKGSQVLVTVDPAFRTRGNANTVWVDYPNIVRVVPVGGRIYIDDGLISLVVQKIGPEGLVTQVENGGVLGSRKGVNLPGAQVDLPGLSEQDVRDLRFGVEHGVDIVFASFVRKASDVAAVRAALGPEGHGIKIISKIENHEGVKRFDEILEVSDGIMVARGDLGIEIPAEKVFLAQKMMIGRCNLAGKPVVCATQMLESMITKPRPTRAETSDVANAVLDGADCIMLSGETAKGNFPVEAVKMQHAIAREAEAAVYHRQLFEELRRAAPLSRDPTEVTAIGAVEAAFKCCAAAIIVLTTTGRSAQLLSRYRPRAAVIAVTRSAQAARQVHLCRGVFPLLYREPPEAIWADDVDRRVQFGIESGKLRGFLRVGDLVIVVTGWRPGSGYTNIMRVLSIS
Protocol: The activation of wt-PKR by Compound 1 in mature human erythrocytes ex vivo was evaluated in purified RBCs purchased from Research Blood Components. Cells treated with Compound 1 for 3 hr in glucose-containing media were washed, lysed, and assayed using a Biovision Pyruvate Kinase Assay (K709-100). The assay was repeated multiple times to account for donor-to-donor variability and the relatively narrow dynamic range.

[4] = human, plasma, oral, HV (N = 6), single dose 700 mg, geometric mean (geometric CV)

O=C([C@H](CO)c1ccccc1)N1CC2=C(C1)CN(S(=O)(=O)c1cnc3c(c1)OCCO3)C2 (single isomer, unassigned) [Compound 1]
exposure under fed/fasted conditions ([1]; food effect cohort, 400 mg): similar | PK linearity and time dependence ([1]; healthy subject studies): linear and time-independent PK | observed clearance on day 1 and day 14 ([1]; healthy subjects, 14 days of dosing): unchanged | half-life ([1]; human, plasma, oral, 700 mg, HV (N = 6), single dose 700 mg, geometric mean (geometric CV), read-out: t1/2 (converted)): 13.3 h | half-life ([1]; human, plasma, oral, biphasic PK profile, read-out: terminal half-life): 12 to 14 h | half-life ([1]; human, plasma, oral, healthy volunteers, single doses up to 700 mg, read-out: T1/2): 11 to 15 h | AUC(0-t) ([1]; human, plasma, oral, HS and SCD subjects similar, read-out: AUC0-24): ~7000 ng·h/mL | half-life ([1]; human, plasma, oral, HS and SCD subjects similar, read-out: T½): 10 to 13 h | AUC(0-inf) [1, 4]: 7000 ng·h/mL | Cmax [1, 4]: 2200 ng/mL | Tmax ([1]; human, plasma, oral, HV (N = 6), single dose 700 mg, median [min, max]): 0.5 h | lag of maximum ATP increase behind maximum plasma concentration (ATP blood levels): at least 24 hours | effect on testosterone and estradiol levels [2]: No effect; also recorded: no statistically significant changes | EC50 ([3]; Cell Assay of Example 4): < 500 nM | Max − Min (%) ([3]; human RBCs, 3 hr, individual replicates 1-4): <150% and <100% and <50% | Mean maximum activation increase (Max − Min) ([3]; human RBCs, 3 hr, mean of replicates): <100%
